# From PubChem BioAssay (NCI)
#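 Tested at 5 concentrations; 48 h exposure; 96-well plates; endpoints linearly interpolated, else capped at highest concentration. GI50 marks 50% less growth. TGI denotes the concentration required for complete inhibition of growth.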
# How the values were obtained:
# Assay in all cases: inhibition of tumour cell growth, NCI panel, 48 h
# HOP-62 NSCLC = tested on: HOP-62 NSCLC
# OVCAR-8 ovarian = tested on: OVCAR-8 ovarian
# CCRF-CEM leukemia = tested on: CCRF-CEM leukemia
# OVCAR-3 ovarian = tested on: OVCAR-3 ovarian
# SK-MEL-5 melanoma = tested on: SK-MEL-5 melanoma
# SK-MEL-2 melanoma = tested on: SK-MEL-2 melanoma
# SF-295 CNS = tested on: SF-295 CNS
# SF-268 CNS = tested on: SF-268 CNS
# NCI-H226 lung = tested on: NCI-H226 lung
# HL-60(TB) leukemia = tested on: HL-60(TB) leukemia
# HCC-2998 colon = tested on: HCC-2998 colon
# M14 melanoma = tested on: M14 melanoma
# IGROV1 ovarian = tested on: IGROV1 ovarian
# RXF 393 renal = tested on: RXF 393 renal
# SW-620 colon = tested on: SW-620 colon
# SN12C renal = tested on: SN12C renal
# UACC-257 melanoma = tested on: UACC-257 melanoma
# MDA-MB-435 = tested on: MDA-MB-435
# OVCAR-4 ovarian = tested on: OVCAR-4 ovarian
# HS 578T breast = tested on: HS 578T breast
# MALME-3M melanoma = tested on: MALME-3M melanoma
# BT-549 breast = tested on: BT-549 breast
# HOP-92 NSCLC = tested on: HOP-92 NSCLC
# U251 CNS = tested on: U251 CNS
# MOLT-4 leukemia = tested on: MOLT-4 leukemia
# COLO 205 colon = tested on: COLO 205 colon
# SNB-75 CNS = tested on: SNB-75 CNS
# NCI-H460 lung = tested on: NCI-H460 lung
# MCF7 breast = tested on: MCF7 breast
# EKVX NSCLC = tested on: EKVX NSCLC
# SF-539 CNS = tested on: SF-539 CNS
# MDA-MB-231 breast = tested on: MDA-MB-231 breast
# TK-10 renal = tested on: TK-10 renal
# UO-31 renal = tested on: UO-31 renal
# SK-OV-3 ovarian = tested on: SK-OV-3 ovarian
# PC-3 prostate = tested on: PC-3 prostate
# T-47D breast = tested on: T-47D breast
# UACC-62 melanoma = tested on: UACC-62 melanoma
# SNB-19 CNS = tested on: SNB-19 CNS
# HCT-15 colon = tested on: HCT-15 colon
# NCI-H522 lung = tested on: NCI-H522 lung
# ACHN renal = tested on: ACHN renal
# LOX IMVI melanoma = tested on: LOX IMVI melanoma
# RPMI-8226 leukemia = tested on: RPMI-8226 leukemia
# MDA-MB-468 breast = tested on: MDA-MB-468 breast
# NCI/ADR-RES ovarian = tested on: NCI/ADR-RES ovarian
# HT29 colon = tested on: HT29 colon
# OVCAR-5 ovarian = tested on: OVCAR-5 ovarian
# SK-MEL-28 melanoma = tested on: SK-MEL-28 melanoma
# K-562 leukemia = tested on: K-562 leukemia
# HCT-116 colon = tested on: HCT-116 colon
# KM12 colon = tested on: KM12 colon
# A498 renal = tested on: A498 renal
# SR leukemia = tested on: SR leukemia
# DU-145 prostate = tested on: DU-145 prostate
# A549 NSCLC = tested on: A549 NSCLC
# NCI-H23 lung = tested on: NCI-H23 lung
# CAKI-1 renal = tested on: CAKI-1 renal
# 786-0 renal = tested on: 786-0 renal
smiles,measurement,setting,value
CC1(C)CC[C@]2(C(=O)O)CC[C@]3(C)C(=CCC4[C@@]5(C)C[C@@H](O)[C@@H]6OC(c7ccccc7Br)OC[C@@]6(C)C5CC[C@]43C)C2C1 (stereo partly drawn),GI50,HOP-62 NSCLC,3.9 µM
same,TGI,HOP-62 NSCLC,22.4 µM
same,GI50,OVCAR-8 ovarian,3.48 µM
same,TGI,OVCAR-8 ovarian,> 100 µM
same,GI50,CCRF-CEM leukemia,3.26 µM
same,TGI,CCRF-CEM leukemia,35.4 µM
same,GI50,OVCAR-3 ovarian,2.99 µM
same,TGI,OVCAR-3 ovarian,12.7 µM
same,GI50,SK-MEL-5 melanoma,3.6 µM
same,TGI,SK-MEL-5 melanoma,13.9 µM
same,GI50,SK-MEL-2 melanoma,4.03 µM
same,TGI,SK-MEL-2 melanoma,20.7 µM
same,GI50,SF-295 CNS,2.79 µM
same,TGI,SF-295 CNS,18.8 µM
same,GI50,SF-268 CNS,3.45 µM
same,TGI,SF-268 CNS,> 100 µM
same,GI50,NCI-H226 lung,3.52 µM
same,TGI,NCI-H226 lung,34.9 µM
same,GI50,HL-60(TB) leukemia,2.57 µM
same,TGI,HL-60(TB) leukemia,9.75 µM
same,GI50,HCC-2998 colon,3.63 µM
same,TGI,HCC-2998 colon,20.8 µM
same,GI50,M14 melanoma,3.88 µM
same,TGI,M14 melanoma,17.7 µM
same,GI50,IGROV1 ovarian,4.53 µM
same,TGI,IGROV1 ovarian,30.1 µM
same,GI50,RXF 393 renal,4.37 µM
same,TGI,RXF 393 renal,8.95 µM
same,GI50,SW-620 colon,3.43 µM
same,TGI,SW-620 colon,30.9 µM
same,GI50,SN12C renal,3.14 µM
same,TGI,SN12C renal,17.6 µM
same,GI50,UACC-257 melanoma,4.12 µM
same,TGI,UACC-257 melanoma,30.9 µM
same,GI50,MDA-MB-435,3.95 µM
same,TGI,MDA-MB-435,23.5 µM
same,GI50,OVCAR-4 ovarian,3.61 µM
same,TGI,OVCAR-4 ovarian,> 100 µM
same,GI50,HS 578T breast,2.82 µM
same,TGI,HS 578T breast,14.9 µM
same,GI50,MALME-3M melanoma,3.78 µM
same,TGI,MALME-3M melanoma,19.3 µM
same,GI50,BT-549 breast,3.11 µM
same,TGI,BT-549 breast,13.1 µM
same,GI50,HOP-92 NSCLC,4.72 µM
same,TGI,HOP-92 NSCLC,37.1 µM
same,GI50,U251 CNS,3.08 µM
same,TGI,U251 CNS,14.3 µM
same,GI50,MOLT-4 leukemia,2.67 µM
same,TGI,MOLT-4 leukemia,23.4 µM
same,GI50,COLO 205 colon,1.99 µM
same,TGI,COLO 205 colon,4.89 µM
same,GI50,SNB-75 CNS,2.44 µM
same,TGI,SNB-75 CNS,> 100 µM
same,GI50,NCI-H460 lung,2.51 µM
same,TGI,NCI-H460 lung,9.77 µM
same,GI50,MCF7 breast,3.29 µM
same,TGI,MCF7 breast,> 100 µM
same,GI50,EKVX NSCLC,2.68 µM
same,TGI,EKVX NSCLC,36.5 µM
same,GI50,SF-539 CNS,3.59 µM
same,TGI,SF-539 CNS,12.8 µM
same,GI50,MDA-MB-231 breast,4.01 µM
same,TGI,MDA-MB-231 breast,21.9 µM
same,GI50,TK-10 renal,4.55 µM
same,TGI,TK-10 renal,> 100 µM
same,GI50,UO-31 renal,2.68 µM
same,TGI,UO-31 renal,12.4 µM
same,GI50,SK-OV-3 ovarian,3.8 µM
same,TGI,SK-OV-3 ovarian,44.1 µM
same,GI50,PC-3 prostate,3.99 µM
same,TGI,PC-3 prostate,> 100 µM
same,GI50,T-47D breast,3.46 µM
same,TGI,T-47D breast,> 100 µM
same,GI50,UACC-62 melanoma,4.8 µM
same,TGI,UACC-62 melanoma,24.8 µM
same,GI50,SNB-19 CNS,3.82 µM
same,TGI,SNB-19 CNS,> 100 µM
same,GI50,HCT-15 colon,2.21 µM
same,TGI,HCT-15 colon,12.9 µM
same,GI50,NCI-H522 lung,3.45 µM
same,TGI,NCI-H522 lung,78.4 µM
same,GI50,ACHN renal,2.53 µM
same,TGI,ACHN renal,18.7 µM
same,GI50,LOX IMVI melanoma,3.49 µM
same,TGI,LOX IMVI melanoma,13.9 µM
same,GI50,RPMI-8226 leukemia,2.66 µM
same,TGI,RPMI-8226 leukemia,71.8 µM
same,GI50,MDA-MB-468 breast,2.83 µM
same,TGI,MDA-MB-468 breast,20.7 µM
same,GI50,NCI/ADR-RES ovarian,3.17 µM
same,TGI,NCI/ADR-RES ovarian,> 100 µM
same,GI50,HT29 colon,3.42 µM
same,TGI,HT29 colon,16.7 µM
same,GI50,OVCAR-5 ovarian,4.08 µM
same,TGI,OVCAR-5 ovarian,25 µM
same,GI50,SK-MEL-28 melanoma,4.69 µM
same,TGI,SK-MEL-28 melanoma,37.2 µM
same,GI50,K-562 leukemia,2.68 µM
same,TGI,K-562 leukemia,> 100 µM
same,GI50,HCT-116 colon,2.65 µM
same,TGI,HCT-116 colon,11.1 µM
same,GI50,KM12 colon,3.91 µM
same,TGI,KM12 colon,26.2 µM
same,GI50,A498 renal,3.28 µM
same,TGI,A498 renal,12.6 µM
same,GI50,SR leukemia,4.15 µM
same,TGI,SR leukemia,> 100 µM
same,GI50,DU-145 prostate,3.71 µM
same,TGI,DU-145 prostate,> 100 µM
same,GI50,A549 NSCLC,2.11 µM
same,TGI,A549 NSCLC,50.1 µM
same,GI50,NCI-H23 lung,3.72 µM
same,TGI,NCI-H23 lung,43.7 µM
same,GI50,CAKI-1 renal,3.16 µM
same,TGI,CAKI-1 renal,> 100 µM
same,GI50,786-0 renal,3.61 µM
same,TGI,786-0 renal,15.3 µM
